The test system of one data set is A. flavus. Put plainly: Broth microdilution antifungal susceptibility (Example 13). It counts as cell-based. Conditions: Aspergillus flavus.
In the next data set the test system is S. maltophilia. Put plainly: MIC against CF bacterial strains (Example 5). To be noted: Stenotrophomonas maltophilia.
The test system of another data set is E. faecium. Kind of data set: Broth microdilution MIC (Example 11). To be noted: Enterococcus faecium, VRE, VRE vanA Lev^R Cip^R Ery^R.
Data set [1] has as its system fully differentiated human airway epithelium (MUCILAIR™). Put plainly: Acute toxicity on […] (LDH release, TEER, morphology). It counts as cell-based. The protocol: Controlled in vitro evaluation of BisEDT, with respect to potential cytotoxicity on fully differentiated human airway epithelium was carried out. Both solubilized and solid (powder/particulate) forms of BisEDT were evaluated for cytotoxicity by Epithelix, a contract research organization (CRO) specializing in this form of cytotoxicity evaluation utilizing a proprietary, in vitro fully differentiated human airway epithelium test system ([…]™) The […]™ system facilitated evaluation of cytotoxicity through both LDH release (from the culture medium side) and trans-epithelial electrical resistance (TEER) from the apical/air-exposed side as well as pre- and post-exposure microscopic examination for morphological changes (FIG. 13).
The assay system used in this study is Epithelix's proprietary technology […]™ […]™ is a fully differentiated and ready-to-use 3D model of human airway epithelium, constituted with primary human epithelial cells freshly isolated from nasal, tracheal or bronchial biopsies. […]™ (FIG. 24), is not only morphologically and functionally differentiated, but can also be maintained in a homeostatic state for a long period of time (Huang et al., 2009).
[…]™ is composed of basal cells, ciliated cells and mucus cells. The proportion of these various cell types is preserved compared to what one observes in vivo (Huang et al., 2011). Moreover the epithelia are started from de-differentiated cells. The cells undergo a progressive differentiation with time. After 45 days of culture, the epithelia are fully ciliated, secret mucus and are electrically tight (TEER>200 Ω.cm^2). The activity of the main epithelial ionic channels, such as CFTR, EnaC, Na/K ATPase, is preserved and the epithelia is shown to respond in a regulated and vectorial manner to the pro-inflammatory stimulus, TNF-α (Huang et al., 2011). A large panel of cytokines, chemokines and metalloproteinases has been detected in […]™ (e.g. IL-8, IL-6, GM-CSF, MMP-9, GRO-α).
BisEDT (MB-1-B3) was applied on the apical surface of […]™ during 1, 8, 24 and 48 hours (FIG. 13). The effect of 6 concentrations was studied: 0.001, 0.01, 0.1, 1, 10 and 30 μM. […] 30 μl solution at the selected concentration was applied on the apical surface of […]™. The negative control corresponds to the vehicle solution (0 μM) and untreated cultures. The positive control corresponds to 50 μl to 10% Triton X-100 diluted in a buffered saline solution. The study was run in triplicates.
During the study, inserts were maintained in a CO2 incubator (37° C., 5% CO2, 100% humidity). The following end-points were determined: • Tissue integrity monitoring: Trans-Epithelial Electrical Resistance (TEER) measurement (quantitative) at D0, D1 and D2. • Cytotoxicity monitoring: LDH test (quantitative) at D0, D1 and D2. • Morphology: cellular and tissue integrity examined under contrast microscope at D0, D1 and D2.
Three days before the experiment, the following quality controls were performed on each epithelium: • Washing: inserts were washed with 200 μl of […]™ culture medium. Washing removes accumulated mucus on the tissue surface which may interfere with the test. • Trans-Epithelial Electrical Resistance (TEER): TEER was measured to verify that all the selected inserts had tight epithelial barriers and the tissue itself was not disrupted prior to application of the test material. • Tissue morphology: each insert was inspected under a conventional inverted microscope to ensure the quality of the epithelia and determine qualitatively that cilia motion was visible. The presence of mucus was detected by the refractive aspect of the apical surface. Results
Compound BisEDT was applied on the apical surface of […]™. The effect of 5 concentrations after 1, 8,24 and 48 hours exposure was studied: 0.033, 0.33, 3.33, 33.3, 333 μg/cm^2. […]

Data set [2] is described as follows: Particle size distribution of exposure aerosols (In-Tox Mercer Impactor). Conditions: rat efficacy study exposure atmospheres.
Data set [3] in a line: Particle size of BisEDT microparticles (Nanosizer/Zetasizer). It is filed as physicochemical. Conditions: resuspended in 2% Pluronic F-68, sonicated. The protocol: The dried particulate matter was characterized to assess the particle size properties. Briefly, microparticles were resuspended in 2% Pluronic® F-68 (BASF, Mt. Olive, N.J.) and the suspension was sonicated for 10 minutes in a water bath sonicator at standard setting prior to analysis using a Nanosizer/Zetasizer Nano-S particle analyzer (model ZEN1600 (without zeta-potential measuring capacity), Malvern Instruments, Worcestershire, UK) according to the manufacturer's recommendations.

Where [4] appears, read: solid, 0.033 and 0.33 μg/cm^2, all tested time points.
Where [5] appears, read: solution, all tested concentrations and time points.

The results in this text go back to patent US11464749B2, “Bismuth-thiol compositions and methods of use” (Microbion Corporation, priority 2018, dated 2022).

“Also recorded” adds a separate entry of the source. Like-named read-outs stand apart in the source and are kept apart here.

Take `CC(S)C(C)S.[Bi]` (stereo not drawn) [BisBDT, bismuth-2,3-butanedithiol]: the MIC in the data set with A. flavus (ATCC22546, A. flavus ATCC 22546, 24 hr, read-out: MIC0 24 hr) is 1 µg/mL; with A. flavus (ATCC22546, A. flavus ATCC 22546, 48 hr, read-out: MIC0 48 hr), 2 µg/mL; in the data set with A. flavus (ATCC204304, A. flavus ATCC 204304, 24 hr, read-out: MIC0 24 hr), 4 µg/mL; in the data set on A. flavus (ATCC204304, A. flavus ATCC 204304, 48 hr, read-out: MEC at 48 hr (MIC0 not observed)), 4 µg/mL; in the data set on A. flavus (A. flavus MMX 7935, 24 hr, read-out: MIC0 24 hr), 8 µg/mL; in the data set on A. flavus (A. flavus MMX 7935, 48 hr, read-out: MIC0 48 hr), 8 µg/mL. In addition, the figures for the MIC in the data set on S. maltophilia, against E. faecium (E. faecium MMX 485) and against E. faecium (E. faecium MMX 752) were 0.13 µg/mL, 0.5 µg/mL and 1 µg/mL, respectively.
Consider `C1C[S][Bi]([S]CC[S][Bi]2[S]CC[S]2)[S]1` [BisEDT, bismuth-1,2-ethanedithiol], for which the “toxic effects (morphology, LDH release, TEER), BisEDT in solution” value in data set [1] (0.001-30 μM (30 uM = 20.83 ug/mL) apical, 1, 8, 24, 48 hours) is given as “no toxic effects were observed; also recorded: no local toxicity”. For the same molecule, the “toxic effects (morphology, LDH release, TEER), particulate BisEDT in dextran” value in data set [1] (lower two concentrations (0.033, 0.33 μg/cm^2), up to 48 hours) was “no toxic effects were observed”. Moreover, the “TEER (tissue integrity)” value in data set [1] (solid, 1 μg/cm^2, 8, 24 and 48H) is “Loss of tissue integrity”; in data set [1] (solid, 1 μg/cm^2, 1 hour), “no significant effect”; in data set [1] (setting [4]), “No significant effect”; in data set [1] (solid, 3.33, 33.3 and 333 μg/cm^2, 8, 24 and 48H exposure), “Loss of tissue integrity”; in data set [1] (solid, all tested doses, 1 hour exposure), “no significant effect”; in data set [1] (setting [5]), “didn't show significant effect”. For the same molecule, the “LDH release (cytotoxicity)” value was “time- and dose-dependent cytotoxicity” in data set [1] (solid, 1 μg/cm^2, 8, 24 and 48 h); “No significant effect” in data set [1] (solid, 1 μg/cm^2, 1 hour); “No significant effect” in data set [1] (setting [4]); “time and dose dependent increase in LDH release; also recorded: time and dose dependent, cytotoxicity” in data set [1] (solid, 3.3, 33.3 and 333 μg/cm^2, beyond 1 hour); “not altered” in data set [1] (solution, all tested concentrations and time-points). Further, the Morphology after exposure result in data set [1] (solid, 1 μg/cm^2, 1 hour and 8 hour) was “no important morphological changes were observed”; in data set [1] (solid, 1 μg/cm^2, 24 h), “epithelial cells on 2 inserts out of 3 were dead”; in data set [1] (solid, 1 μg/cm^2, 48 h) it was “epithelial cells on all 3 inserts were dead”; in data set [1] (solid, 3.33 μg/cm^2, 24 and 48 h), “Cells were rounded and opaque at the periphery of inserts”; in data set [1] (solid, 0.033 and 0.33 μg/cm^2), “No morphological modifications were observed”; in data set [1] (solid, 33.3 and 333 μg/cm^2, 8, 24 and 48 h), “Cells were rounded and opaque on the inserts”. Besides, the Morphology after exposure entry in data set [1] (setting [5]) is given as “No morphology changes were observed”. Also, the “cytotoxicity (LDH increase, TEER reduction)” value in data set [1] (solid, 1 and 3.33 μg/cm^2, 24 h and 48 h) is on record as “induces cytotoxicity”. In addition, the “toxicity (LDH, TEER, morphology)” value in data set [1] (solid, 33.3, 333 μg/cm^2) is reported as “strong toxicity”. In addition, in data set [2], the “MMAD of exposure aerosol” value was found to be 1.54 μm. The “peak volumetric mean diameter (VMD) of microparticles” value in data set [3] is “about 1.3 microns”.
